From ChEMBL document CHEMBL4152355, “Novel multi-target compounds in the quest for new chemotherapies against Alzheimer's disease: An experimental and theoretical study” (Bioorg Med Chem, 2018)
The source made the active and inactive calls. The calls are words filed in the database; no cut-off is given here.

What was measured:
Beta-secretase 1 [1] = biological target: T1, Beta-secretase 1 (Homo sapiens, UniProt P56817); experiment: Inhibition of BACE 1 (unknown origin) at 50 uM using Rh-EVNLDAEFK-Quencher as substrate after 1 hr by FRET assay relative to control
T1 sequence (P56817 whole entry): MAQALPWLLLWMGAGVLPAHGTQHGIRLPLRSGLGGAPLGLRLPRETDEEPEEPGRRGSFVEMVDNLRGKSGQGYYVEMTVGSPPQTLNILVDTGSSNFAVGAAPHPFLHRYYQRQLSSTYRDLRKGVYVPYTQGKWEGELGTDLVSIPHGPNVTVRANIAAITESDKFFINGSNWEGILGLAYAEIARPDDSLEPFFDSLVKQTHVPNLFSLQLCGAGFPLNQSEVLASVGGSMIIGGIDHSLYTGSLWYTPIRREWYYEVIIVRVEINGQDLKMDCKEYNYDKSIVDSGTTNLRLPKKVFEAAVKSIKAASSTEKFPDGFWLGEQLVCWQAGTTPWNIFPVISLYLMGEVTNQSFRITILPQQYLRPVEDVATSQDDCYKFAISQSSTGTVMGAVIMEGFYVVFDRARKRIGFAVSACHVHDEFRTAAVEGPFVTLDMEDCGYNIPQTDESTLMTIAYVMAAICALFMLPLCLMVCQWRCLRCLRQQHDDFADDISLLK

[2] = Inhibition of Cu2+ induced amyloid beta (1 to 40) fibril aggregation assessed as aggregation level at 100 uM measured on day 10 by UV-visible turbidity method (reference value: 100 +/- 8.72%); design: scale not given: the % may be the effect or the level left
[3] = biological target: Amyloid-beta precursor protein (Homo sapiens) (UniProt P05067); experiment: Inhibition of self-induced amyloid beta (1 to 40) (unknown origin) fibril aggregation assessed as fluorescence emission at 100 uM measured on day 3 by thioflavin-T based assay
Sequence of Amyloid-beta precursor protein (Homo sapiens) (P05067 whole entry): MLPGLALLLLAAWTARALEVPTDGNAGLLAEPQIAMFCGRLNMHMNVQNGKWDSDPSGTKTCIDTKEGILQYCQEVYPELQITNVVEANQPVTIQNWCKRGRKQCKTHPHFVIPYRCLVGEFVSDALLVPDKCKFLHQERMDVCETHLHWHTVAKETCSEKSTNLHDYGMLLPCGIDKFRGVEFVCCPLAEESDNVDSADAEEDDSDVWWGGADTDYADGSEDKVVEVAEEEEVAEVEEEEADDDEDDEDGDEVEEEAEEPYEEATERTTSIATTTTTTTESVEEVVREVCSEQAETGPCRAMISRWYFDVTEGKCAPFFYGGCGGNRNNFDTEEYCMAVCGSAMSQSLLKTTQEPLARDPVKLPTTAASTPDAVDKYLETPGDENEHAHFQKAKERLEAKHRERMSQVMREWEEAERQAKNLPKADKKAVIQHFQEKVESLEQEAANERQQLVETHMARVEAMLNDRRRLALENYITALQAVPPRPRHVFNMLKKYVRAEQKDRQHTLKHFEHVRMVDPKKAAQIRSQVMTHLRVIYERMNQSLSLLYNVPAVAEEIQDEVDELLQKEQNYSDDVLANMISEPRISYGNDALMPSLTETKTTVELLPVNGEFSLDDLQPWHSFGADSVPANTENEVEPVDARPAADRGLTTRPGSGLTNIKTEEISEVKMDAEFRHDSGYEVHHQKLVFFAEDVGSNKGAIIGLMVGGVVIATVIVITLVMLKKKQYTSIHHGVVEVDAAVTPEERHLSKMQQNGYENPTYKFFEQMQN

[4] = Disaggregation of Cu2+ induced amyloid beta (1 to 40) preformed fibrils assessed as aggregation level at 100 uM after 12 days by UV-visible turbidity method (reference value: 120.73 +/- 1.86%)
HEK293 = experiment: Cytotoxicity against human HEK293 cells assessed as decrease in cell viability after 48 hrs by MTT assay relative to resveratrol; type: cell-based; conditions: hek293, 48 h
[5] = biological target: Amyloid-beta precursor protein (Homo sapiens) (UniProt P05067); experiment: Inhibition of self-induced amyloid beta (1 to 40) (unknown origin) fibril aggregation assessed as aggregation level at 100 uM measured on day 3 by UV-visible turbidity method; design: scale not given: the % may be the effect or the level left
[6] = Disaggregation of Cu2+ induced amyloid beta (1 to 40) preformed fibrils assessed as fluorescence emission at 100 uM after 4 days by thioflavin-T based assay (reference value: 178.07 +/- 17.24)
[7] = biological target: Amyloid-beta precursor protein (Homo sapiens) (UniProt P05067); experiment: Inhibition of self-induced amyloid beta (1 to 40) (unknown origin) fibril aggregation assessed as fluorescence emission at 100 uM measured on day 10 by thioflavin-T based assay; design: reference not given here
[8] = Metal chelating activity assessed as compound-Cu2+ adduct formation at 20 uM by spectrophotometric titration analysis
[9] = Cytotoxicity against human HEK293 cells assessed as decrease in cell viability after 48 hrs by MTT assay; type: cell-based; conditions: read-out: LD50
[10] = Inhibition of Cu2+ induced amyloid beta (1 to 40) fibril aggregation assessed as fluorescence emission at 100 uM measured on day 7 by thioflavin-T based assay (reference value: 181.04 +/- 1.74)
[11] = biological target: Amyloid-beta precursor protein (Homo sapiens) (UniProt P05067); experiment: Disaggregation of self-induced amyloid beta (1 to 40) (unknown origin) preformed fibrils assessed as aggregation level at 100 uM after 12 days by UV-visible turbidity method
[12] = Antioxidant activity assessed as AAPH radical scavenging activity up to 64 uM by ORAC assay; type: functional
[13] = Inhibition of Cu2+ induced amyloid beta (1 to 40) fibril aggregation assessed as fluorescence emission at 100 uM measured on day 10 by thioflavin-T based assay (reference value: 412.11 +/- 35.93)
[14] = Inhibition of Cu2+ induced amyloid beta (1 to 40) fibril aggregation assessed as aggregation level at 100 uM measured on day 7 by UV-visible turbidity method (reference value: 100 +/- 0.96%); design: scale not given: the % may be the effect or the level left
[15] = Disaggregation of Cu2+ induced amyloid beta (1 to 40) preformed fibrils assessed as fluorescence emission at 100 uM after 12 days by thioflavin-T based assay (reference value: 150.21 +/- 2.32)
[16] = Disaggregation of Cu2+ induced amyloid beta (1 to 40) preformed fibrils assessed as aggregation level at 100 uM after 4 days by UV-visible turbidity method (reference value: 143.11 +/- 0.76%)
[17] = Metal chelating activity assessed as inhibition of Cu2+ induced amyloid beta (1 to 40) aggregation by measuring decrease in ROS production at 2 equiv after 75 mins by fluorescence assay
[18] = biological target: Amyloid-beta precursor protein (Homo sapiens) (UniProt P05067); experiment: Disaggregation of self-induced amyloid beta (1 to 40) (unknown origin) preformed fibrils assessed as fluorescence emission at 100 uM after 4 days by thioflavin-T based assay; design: reference not given here
[19] = biological target: Amyloid-beta precursor protein (Homo sapiens) (UniProt P05067); experiment: Disaggregation of self-induced amyloid beta (1 to 40) (unknown origin) preformed fibrils assessed as fluorescence emission at 100 uM after 12 days by thioflavin-T based assay; design: reference not given here
[20] = Inhibition of Cu2+ induced amyloid beta (1 to 40) fibril aggregation assessed as aggregation level at 100 uM measured on day 3 by UV-visible turbidity method (reference value: 100 +/- 17.24%); design: scale not given: the % may be the effect or the level left
[21] = biological target: Amyloid-beta precursor protein (Homo sapiens) (UniProt P05067); experiment: Inhibition of self-induced amyloid beta (1 to 40) (unknown origin) fibril aggregation assessed as aggregation level at 100 uM measured on day 10 by UV-visible turbidity method; design: scale not given: the % may be the effect or the level left
[22] = biological target: Amyloid-beta precursor protein (Homo sapiens) (UniProt P05067); experiment: Disaggregation of self-induced amyloid beta (1 to 40) (unknown origin) preformed fibrils assessed as aggregation level at 100 uM after 4 days by UV-visible turbidity method
[23] = biological target: Amyloid-beta precursor protein (Homo sapiens) (UniProt P05067); experiment: Inhibition of self-induced amyloid beta (1 to 40) (unknown origin) fibril aggregation assessed as fluorescence emission at 100 uM measured on day 7 by thioflavin-T based assay
[24] = biological target: Amyloid-beta precursor protein (Homo sapiens) (UniProt P05067); experiment: Inhibition of self-induced amyloid beta (1 to 40) (unknown origin) fibril aggregation assessed as aggregation level at 100 uM measured on day 7 by UV-visible turbidity method; design: scale not given: the % may be the effect or the level left
Beta-secretase 1 [25] = biological target: T1, Beta-secretase 1; experiment: Inhibition of BACE 1 (unknown origin) using 500 nM of Rh-EVNLDAEFK-Quencher as substrate after 1 hr by FRET assay
[26] = Inhibition of Cu2+ induced amyloid beta (1 to 40) fibril aggregation assessed as fluorescence emission at 100 uM measured on day 3 by thioflavin-T based assay (reference value: 33.64 +/- 5.80)
Beta-secretase 1 [27] = biological target: T1, Beta-secretase 1; experiment: Inhibition of BACE 1 (unknown origin) using 250 nM of Rh-EVNLDAEFK-Quencher as substrate after 1 hr by FRET assay
[28] = biological target: Amyloid-beta precursor protein (Homo sapiens) (UniProt P05067); experiment: Induction of amyloid beta (1 to 40) (unknown origin) amorphous aggregation at 100 uM after 10 days
[29] = Metal chelating activity assessed as compound-Cu2+ adduct formation by spectrophotometric analysis
[30] = Antioxidant activity assessed as AAPH radical scavenging activity at 1 to 16 uM by ORAC assay; type: functional
Tetrahymena thermophila = experiment: Toxicity in Tetrahymena thermophila assessed as decrease in viability after 48 hrs by MTT assay relative to resveratrol; type: organism-based; conditions: in vivo
Beta-secretase 1 [31] = biological target: T1, Beta-secretase 1; experiment: Inhibition of BACE 1 (unknown origin) at 10 to 50 uM using Rh-EVNLDAEFK-Quencher as substrate after 1 hr by FRET assay relative to control
[32] = Toxicity in Tetrahymena thermophila assessed as decrease in viability after 48 hrs by MTT assay; type: organism-based; conditions: Tetrahymena thermophila cells, read-out: LD50

## C[C@@]1(c2cc(-c3cncnc3)c(F)cc2F)CCSC(N)=N1
Beta-secretase 1 [1]
  inhibition: 100%

## O=C(NCCNc1ccnc2cc(Cl)ccc12)c1cnccn1
[2]
  Activity: 47.2%
[3]
  Flu intensity: 313
[4]
  Activity: 57.6%
HEK293
  fold change (FC): 1.6
[5]
  Activity: 125%
[6]
  Flu intensity: 109
[7]
  Flu intensity: 767
[8]
  logKa: inactive
[9]
  CC50 at 48 h: 113 µM
[10]
  Flu intensity: 245
[11]
  Activity: 87.8%
[12]
  Activity: inactive
[13]
  Flu intensity: 195
[14]
  Activity: 135%
[15]
  Flu intensity: 71.7
[16]
  Activity: 87.7%
[17]
  inhibition: 36.2%
[18]
  Flu intensity: 289
[19]
  Flu intensity: 224
[20]
  Activity: 124%
[21]
  Activity: 188%
[22]
  Activity: 113%
[23]
  Flu intensity: 707
[24]
  Activity: 181%
Beta-secretase 1 [25]
  IC50: 9.9 µM
Beta-secretase 1 [1]
  inhibition: 91%
[26]
  Flu intensity: 41.7
Beta-secretase 1 [27]
  IC50: 1.7 µM

## Oc1ccccc1/C=N/CCNc1ccnc2cc(Cl)ccc12
[2]
  Activity: 39.1%
[3]
  Flu intensity: 344
[4]
  Activity: 54.8%
HEK293
  fold change (FC): 1.6
[5]
  Activity: 137%
[6]
  Flu intensity: 97
[7]
  Flu intensity: 286
[28]
  Activity: 6 to 33%
[8]
  logKa: 15.3
[9]
  CC50 at 48 h: 113 µM
[10]
  Flu intensity: 178
[11]
  Activity: 90%
[13]
  Flu intensity: 161
[14]
  Activity: 98.5%
[15]
  Flu intensity: 68.2
[29]
  Activity: Active
[16]
  Activity: 78%
[17]
  inhibition: 57.9%
[18]
  Flu intensity: 262
[19]
  Flu intensity: 230
[20]
  Activity: 410%
[21]
  Activity: 94.3%
[22]
  Activity: 102%
[30]
  ORAC (Trolox equivalents): 2.33
[23]
  Flu intensity: 458
[24]
  Activity: 117%
Beta-secretase 1 [1]
  inhibition: 29.6%
[26]
  Flu intensity: 138
Beta-secretase 1 [27]
  IC50: > 160 µM

## Cl.Nc1ncnc2c1ncn2CCNCC/N=C/c1ccc(O)cc1O
[2]
  Activity: 32.7%
[3]
  Flu intensity: 247
[4]
  Activity: 30.9%
HEK293
  fold change (FC): 4.7
[5]
  Activity: 98.2%
[6]
  Flu intensity: 60.9
[7]
  Flu intensity: 367
[28]
  Activity: 6 to 33%
[8]
  logKa: 14.8
[9]
  CC50 at 48 h: 336 µM
[10]
  Flu intensity: 172
[11]
  Activity: 88.4%
[13]
  Flu intensity: 135
[14]
  Activity: 94.8%
[15]
  Flu intensity: 38.4
[29]
  Activity: Active
[16]
  Activity: 48.9%
[17]
  inhibition: 97.5%
[18]
  Flu intensity: 246
[19]
  Flu intensity: 226
[20]
  Activity: 299%
Tetrahymena thermophila
  fold change (FC): 3.4
[21]
  Activity: 89.8%
[22]
  Activity: 96.3%
Beta-secretase 1 [31]
  inhibition: < 50%
[32]
  LC50 at 48 h: 811 µM
[30]
  ORAC (Trolox equivalents): 2.39
[23]
  Flu intensity: 356
[24]
  Activity: 90.9%
Beta-secretase 1 [25]
  IC50: 42 µM
Beta-secretase 1 [1]
  inhibition: 59.2%
[26]
  Flu intensity: 100
Beta-secretase 1 [27]
  IC50: 41.4 µM

## CCN(CC)CCCC(C)Nc1ccnc2cc(Cl)ccc12 (configuration not stated)
Beta-secretase 1 [31]
  inhibition: < 50%
